Test results published in ChEMBL document CHEMBL4483862, “Open-source discovery of chemical leads for next-generation chemoprotective antimalarials” (2018).

System: Plasmodium berghei
Assay: Luciferase/luciferin-expressing antifolate-resistant parasites were used to infect a culture of HepG2 cells that were pre-incubated with compounds. Infected hepatocytes emit light due to the luciferase reaction. Assay results are presented as the percent inhibition of light emission compared to control. […]
Assay type: functional
Settings: sporozoite; for IC90: read-out: LUCIFERASE INFECTION ASSAY - IC90

SMILES	IC90 [µM]	also measured
Cc1ccc2cccc(Oc3ncnc4scc(-c5ccccc5)c34)c2n1	> 10	IC50 (HEPG2TOX_HILL_SLOPE 0.0481, HEPG2TOX_R_SQUARED 0.388, PBLUC_HILL_SLOPE 1.34, PBLUC_R_SQUARED 0.656, read-out: LUCIFERASE INFECTION ASSAY - IC50): 5.34 µM
COc1ccc(C(=O)NCC#Cc2cccc(C(F)(F)F)c2)cn1	> 10	IC50 (FFLUC_HILL_SLOPE 300, FFLUC_R_SQUARED 0.355, read-out: LUCIFERASE INFECTION ASSAY - IC50): > 10 µM
Cc1cccc(C(=O)Nc2cc(S(=O)(=O)N3CCOCC3)ccc2N2CCCCC2)n1	> 10	IC50 (HEPG2TOX_HILL_SLOPE 0.0521, HEPG2TOX_R_SQUARED 0.112, read-out: LUCIFERASE INFECTION ASSAY - IC50): > 10 µM
O=C1COc2ccc(-c3cs/c(=N\c4cc(S(=O)(=O)N5CCOCC5)ccc4Cl)n3C3CC3)cc2N1	> 10	IC50 (FFLUC_HILL_SLOPE 592, FFLUC_R_SQUARED 0.24, HEPG2TOX_HILL_SLOPE 8.86, HEPG2TOX_R_SQUARED 0.733, PBLUC_HILL_SLOPE 5.17, PBLUC_R_SQUARED 0.255, read-out: LUCIFERASE INFECTION ASSAY - IC50): 8.04 µM
O=C1C=CC(=O)N1c1ccc(Cl)cc1Cl	> 13.6	IC50 (FFLUC_HILL_SLOPE 227, FFLUC_R_SQUARED 0.205, read-out: LUCIFERASE INFECTION ASSAY - IC50): > 13.6 µM
Cc1nc(=O)c2c(C)c(C(=O)OCC(=O)/C=C3\N(C)c4ccccc4C3(C)C)sc2[nH]1	> 10	IC50 (HEPG2TOX_HILL_SLOPE 0.0151, HEPG2TOX_R_SQUARED 0.0709, PBLUC_HILL_SLOPE 3.19, PBLUC_R_SQUARED 0.563, read-out: LUCIFERASE INFECTION ASSAY - IC50): 6.65 µM
CCCc1ccc(-c2csc(NC(=O)CC(NC(=O)c3ccccc3Cl)c3ccccc3)n2)cc1 (centres undefined)	> 10	IC50 (FFLUC_HILL_SLOPE 390, FFLUC_R_SQUARED 0.412, read-out: LUCIFERASE INFECTION ASSAY - IC50): > 10 µM
CCCOc1ccc(/C=C/C(=O)Nc2ccc(Br)c(C(F)(F)F)c2)cc1OCC	> 10	IC50 (FFLUC_HILL_SLOPE 178, FFLUC_R_SQUARED 0.15, HEPG2TOX_HILL_SLOPE 0.174, HEPG2TOX_R_SQUARED 0.586, PBLUC_HILL_SLOPE 2.73, PBLUC_R_SQUARED 0.361, read-out: LUCIFERASE INFECTION ASSAY - IC50): 7.97 µM
CN(C(=O)c1cc(-c2ccccc2OCc2ccccc2)ncn1)c1ccccc1	5	IC50 (HEPG2TOX_HILL_SLOPE 0.0237, HEPG2TOX_R_SQUARED 0.016, PBLUC_HILL_SLOPE 4.42, PBLUC_R_SQUARED 0.717, read-out: LUCIFERASE INFECTION ASSAY - IC50): 3.04 µM
CC(C)=CC(=O)Nc1scc(-c2ccccc2)c1C(=O)OCC(=O)Nc1ccc([N+](=O)[O-])cc1Cl	> 10	IC50 (HEPG2TOX_HILL_SLOPE 0.0482, HEPG2TOX_R_SQUARED 0.161, PBLUC_HILL_SLOPE 2.32, PBLUC_R_SQUARED 0.465, read-out: LUCIFERASE INFECTION ASSAY - IC50): 5.35 µM
CCN(CC)c1nc2c3c(nc4c(c3c1C#N)CC(c1ccccc1)O4)NC1(CCCCC1)N2 (centres undefined)	> 10	IC50 (FFLUC_HILL_SLOPE 304, FFLUC_R_SQUARED 0.442, PBLUC_HILL_SLOPE 2.01, PBLUC_R_SQUARED 0.722, read-out: LUCIFERASE INFECTION ASSAY - IC50): 6.1 µM
Oc1cc2[nH]c3ccccc3c2cc1CN1CCN(Cc2cccs2)CC1	> 10	IC50 (HEPG2TOX_HILL_SLOPE 0.0488, HEPG2TOX_R_SQUARED 0.0234, PBLUC_HILL_SLOPE 24, PBLUC_R_SQUARED 0.263, read-out: LUCIFERASE INFECTION ASSAY - IC50): 9.5 µM
O=C(C1COc2ccccc2C1)N(Cc1ccccc1)c1ccccn1 (centres undefined)	> 10	IC50 (HEPG2TOX_HILL_SLOPE 0.0154, HEPG2TOX_R_SQUARED 0.0147, read-out: LUCIFERASE INFECTION ASSAY - IC50): > 10 µM
CCCCCCCc1ccc(NC(=O)Nc2ccc(F)cc2)cc1	> 10	IC50 (FFLUC_HILL_SLOPE 255, FFLUC_R_SQUARED 0.421, PBLUC_HILL_SLOPE 1.52, PBLUC_R_SQUARED 0.706, read-out: LUCIFERASE INFECTION ASSAY - IC50): 2.49 µM
CCOC(=O)c1sc(SCc2ccc(Cl)cc2)c2c1CCCC2=O	> 8.66	IC50 (FFLUC_HILL_SLOPE 175, FFLUC_R_SQUARED 0.438, PBLUC_HILL_SLOPE 6.18, PBLUC_R_SQUARED 0.111, read-out: LUCIFERASE INFECTION ASSAY - IC50): > 8.66 µM
Cc1cc(N2CCN(c3cnn(-c4nc5ccccc5[nH]4)c(=O)c3Cl)CC2)nc(C(C)C)n1	7.33	IC50 (HEPG2TOX_HILL_SLOPE 0.0256, HEPG2TOX_R_SQUARED 0.0179, PBLUC_HILL_SLOPE 3.18, PBLUC_R_SQUARED 0.351, read-out: LUCIFERASE INFECTION ASSAY - IC50): 3.68 µM

SMILES	IC90 [µM]	also measured
CC1c2ccsc2CCN1C(=S)NC(=O)c1ccc(C(C)(C)C)cc1 (centres undefined)	> 8.86	IC50 (HEPG2TOX_HILL_SLOPE 0.0482, HEPG2TOX_R_SQUARED 0.0333, read-out: LUCIFERASE INFECTION ASSAY - IC50): > 8.86 µM
O=C(Cc1csc(-c2ccccc2Cl)n1)Nc1cnc2ccccc2c1	> 10	IC50 (HEPG2TOX_HILL_SLOPE 0.041, HEPG2TOX_R_SQUARED 0.0816, read-out: LUCIFERASE INFECTION ASSAY - IC50): > 10 µM
OCCNCc1cc(Cl)ccc1OCc1ccc(Cl)cc1Cl	> 8.31	IC50 (HEPG2TOX_HILL_SLOPE 0.0281, HEPG2TOX_R_SQUARED 0.0269, read-out: LUCIFERASE INFECTION ASSAY - IC50): > 8.31 µM
O=C1C(=C2NC(c3cccc(C(F)(F)F)c3)=CS2)Sc2ccccc21	3.25	IC50 (FFLUC_HILL_SLOPE 302, FFLUC_R_SQUARED 0.711, PBLUC_HILL_SLOPE 16.1, PBLUC_R_SQUARED 0.464, read-out: LUCIFERASE INFECTION ASSAY - IC50): 2.83 µM
Cc1cc(C(=O)C(C)OC(=O)CCc2nc(=O)c3ccccc3[nH]2)c(C)n1-c1ccc(Cl)cc1 (centres undefined)	> 10	IC50 (HEPG2TOX_HILL_SLOPE 0.024, HEPG2TOX_R_SQUARED 0.0218, read-out: LUCIFERASE INFECTION ASSAY - IC50): > 10 µM
O=C(c1ccc([N+](=O)[O-])o1)N1CCc2sccc2C1c1ccccc1 (centres undefined)	> 10	IC50 (HEPG2TOX_HILL_SLOPE 0.0396, HEPG2TOX_R_SQUARED 0.037, PBLUC_HILL_SLOPE 3.01, PBLUC_R_SQUARED 0.32, read-out: LUCIFERASE INFECTION ASSAY - IC50): 6.65 µM
O=[N+]([O-])c1ccc(S(=O)(=O)c2ccc(C(F)(F)F)cn2)nc1	6.39	IC50 (FFLUC_HILL_SLOPE 150, FFLUC_R_SQUARED 0.542, HEPG2TOX_HILL_SLOPE 3, HEPG2TOX_R_SQUARED 0.956, PBLUC_HILL_SLOPE 6.23, PBLUC_R_SQUARED 0.341, read-out: LUCIFERASE INFECTION ASSAY - IC50): 4.49 µM
CCCCCCN(C(=O)Cn1ccsc1=N)c1nc(-c2ccccc2)cs1	> 10	IC50 (FFLUC_HILL_SLOPE 258, FFLUC_R_SQUARED 0.634, read-out: LUCIFERASE INFECTION ASSAY - IC50): > 10 µM
CC(C)(C)c1cc(-c2csc(CS(=O)(=O)Cc3cccc(C(F)(F)F)c3)n2)cc(C(C)(C)C)c1O	> 6.28	IC50 (FFLUC_HILL_SLOPE 261, FFLUC_R_SQUARED 0.0541, PBLUC_HILL_SLOPE 0.448, PBLUC_R_SQUARED 0.195, read-out: LUCIFERASE INFECTION ASSAY - IC50): > 6.28 µM
FC(F)(F)c1cc(NC(=S)N2CCC(CCCC3CCN(C(=S)Nc4cc(C(F)(F)F)cc(C(F)(F)F)c4)CC3)CC2)cc(C(F)(F)F)c1	> 4.38	IC50 (FFLUC_HILL_SLOPE 260, FFLUC_R_SQUARED 0.348, HEPG2TOX_HILL_SLOPE 8.4, HEPG2TOX_R_SQUARED 0.678, PBLUC_HILL_SLOPE 17.9, PBLUC_R_SQUARED 0.0888, read-out: LUCIFERASE INFECTION ASSAY - IC50): > 4.38 µM
COc1ccc(CN2C(=O)c3ccccc3C(C=NNC(=O)Cc3cccn3C)C2=O)cc1 (centres undefined)	4.28	IC50 (FFLUC_HILL_SLOPE 212, FFLUC_R_SQUARED 0.138, HEPG2TOX_HILL_SLOPE 1.34, HEPG2TOX_R_SQUARED 0.84, PBLUC_HILL_SLOPE 13.5, PBLUC_R_SQUARED 0.236, read-out: LUCIFERASE INFECTION ASSAY - IC50): 3.64 µM
O=C(NC1CC1)c1ccc(-c2cnc3cnc(-c4ccsc4)cn23)cc1	> 9.16	IC50 (HEPG2TOX_HILL_SLOPE 0.0389, HEPG2TOX_R_SQUARED 0.0745, PBLUC_HILL_SLOPE 3.06, PBLUC_R_SQUARED 0.597, read-out: LUCIFERASE INFECTION ASSAY - IC50): 7.19 µM
COc1cccc(C(c2c(-c3ccccc3)n(O)c3ccccc23)N2CCOCC2)c1 (centres undefined)	> 10	IC50 (FFLUC_HILL_SLOPE 161, FFLUC_R_SQUARED 0.573, read-out: LUCIFERASE INFECTION ASSAY - IC50): > 10 µM
C=CCN(c1ccccc1Cl)S(=O)(=O)c1cc(C(=O)NCc2cn3cc(Cl)ccc3n2)ccc1Cl	> 10	IC50 (FFLUC_HILL_SLOPE 155, FFLUC_R_SQUARED 0.0996, read-out: LUCIFERASE INFECTION ASSAY - IC50): > 10 µM
CC(=O)Nc1cccc(-c2cn3c(-c4ccc(Oc5ccccc5)cc4)cnc3cn2)c1	> 7.85	IC50 (HEPG2TOX_HILL_SLOPE 0.0216, HEPG2TOX_R_SQUARED 0.0103, PBLUC_HILL_SLOPE 2.46, PBLUC_R_SQUARED 0.352, read-out: LUCIFERASE INFECTION ASSAY - IC50): > 7.85 µM
CCn1c(-c2ccccc2)c(C(=O)COc2ccc(F)cc2Br)c2ccccc21	> 10	IC50 (FFLUC_HILL_SLOPE 1400, FFLUC_R_SQUARED 0.245, read-out: LUCIFERASE INFECTION ASSAY - IC50): > 10 µM
